Source: patent publication US20130310256A1, “HERBICIDAL COMPOSITIONS COMPRISING 4-AMINO-3-CHLORO-5-FLUORO-6-(4-CHLORO-2-FLUORO-3-METHOXYPHENYL) PYRIDINE-2-CARBOXYLIC ACID OR A DERIVATIVE THEREOF AND VLCFA AND LIPID SYNTHESIS INHIBITING HERBICIDES” (DOW AGROSCIENCES LLC, priority 2008, published 2013)

Key:
[1] = test system: ECHCO; assay: Example I: postemergence foliar-applied weed control, greenhouse; assay type: in vivo, Echinochloa colona (L.) Link (junglerice); settings: 275 gai/ha; foliar
Procedure, shortened: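 Plants grown in loam/sandy loam–calcareous grit soil (80:20) in greenhouse, 14 hr photoperiod, about 29° C. day/26° C. night, treated postemergence at first to fourth true leaf stage. Foliar spray at 187 L/ha with 1.25% (v/v) crop oil concentrate; Compound A dosed on acid equivalent basis, partners on active ingredient basis.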

[2] = test system: XANST; assay: Example IV: pre-emergence soil-applied weed control, greenhouse; assay type: in vivo, Xanthium strumarium L. (common cocklebur); settings: 29 DAA
Description: Seeds or nutlets of the desired test plant species were planted in a soil matrix prepared by mixing a loam soil (32 percent silt, 23 percent clay, and 45 percent sand, with a pH of about 6.5 and an organic matter content of about 1.9 percent) and calcareous grit in an 80 to 20 ratio. The soil matrix was contained in plastic pots with a volume of 1 quart and a surface area of 83.6 square centimeters (cm^2).
Treatments consisted of the benzyl ester of 4-amino-3-chloro-5-fluoro-6-(4-chloro-2-fluoro-3-methoxy-phenyl)pyridine-2-carboxylic acid (compound A) formulated as an SC (suspension concentrate) and various herbicidal components alone and in combination. Forms of compound A were applied on an acid equivalent basis.
Other herbicidal components were applied on an active ingredient basis and included very long chain fatty acid (VLCFA) synthesis-inhibiting and fatty acid/lipid synthesis-inhibiting herbicides alachlor (technical grade material), dimethenamid-P formulated as Outlook®, and S-metolachlor formulated as Dual® II Magnum.
Treatment requirements were calculated based upon the rates being tested, the concentration of active ingredient or acid equivalent in the formulation, and a 12 mL application volume at a rate of 187 L/ha.
For treatments comprised of formulated compounds, measured amounts of compounds were placed individually in 25 mL glass vials and diluted in a volume of 1.25% (v/v) Agri-Dex® crop oil concentrate (COC) to obtain 12× stock solutions. […] Application solutions were prepared by adding an appropriate amount of each stock solution (e.g., 1 mL) and diluted to the appropriate final concentrations with the addition of 10 mL of an aqueous mixture of 1.25% (v/v) COC so that the final spray solutions contained 1.25% (v/v) COC.
For treatments comprised of technical compounds, weighed amounts can be placed individually in 25 mL glass vials and dissolved in a volume of 97:3 (v/v) acetone/DMSO to obtain 12× stock solutions. […] Application solutions can be prepared by adding an appropriate amount of each stock solution (e.g., 1 mL) and diluted to the appropriate final concentrations with the addition of 10 mL of an aqueous mixture of 1.5% (v/v) COC so that the final spray solutions contain 1.25% (v/v) COC. […]
For treatments comprised of formulated and technical compounds, weighed amounts of the technical materials were placed individually in 25 mL glass vials and dissolved in a volume of 97:3 (v/v) acetone/DMSO to obtain 12× stock solutions, and measured amounts of the formulated compounds were placed individually in 25 mL glass vials and diluted in a volume of 1.5% (v/v) COC or water to obtain 12× stock solutions. […]

[3] = test system: CYPES; assay: Example I: postemergence foliar-applied weed control, greenhouse; assay type: in vivo, Cyperus esculentus L. (yellow nutsedge); settings: 275 gai/ha

SMILES: COC[C@H](C)N(C(=O)CCl)c1c(C)csc1C [Dimethenamid-P, (S) 2-chloro-N-(2,4-dimethyl-3-thienyl)-N-(2-methoxy-1-methylethyl)acetamide]
- Visual Weed Control (%) - 20 DAA ECHCO Obs [1]: 70%
- Visual Weed Control XANST Obs ([2]; 410 gai/ha): 23%
- Visual Weed Control XANST Obs ([2]; 820 gai/ha): 30%
- Visual Weed Control XANST Obs ([2]; 1640 gai/ha): 50%
- Visual Weed Control (%) - 20 DAA CYPES Obs [3]: 0%
